# Reference: ChEMBL document CHEMBL1201862, “PubChem BioAssay data set” (2004)
# The source made the active and inactive calls.
# Key:
# [1] = target: Voltage-dependent T-type calcium channel subunit alpha-1H (Homo sapiens, UniProt O95180); format: functional;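 also: channel activity triggered by adding a high calcium stimulation buffer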
# [2] = target: Eukaryotic translation initiation factor 4E (Mus musculus, UniProt P63073); test: blockers of eIF4G binding by eIF4E – biochemical, TR-FRET, dose response (AID 855); format: functional;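 also: potency for disrupting eIF4E binding to eIF4GI seen as loss of FRET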
# [3] = target: T1, Voltage-gated N-type calcium channel alpha-1B subunit/Amyloid beta A4 precursor protein-binding family A member 1 (Homo sapiens, UniProt Q00975+Q02410); format: protein assay
# [4] = target: T1, Voltage-gated N-type calcium channel alpha-1B subunit/Amyloid beta A4 precursor protein-binding family A member 1; format: protein assay; remark: listed apart in the source
# Coagulation factor XII = target: T2, Coagulation factor XII (Homo sapiens, UniProt P00748); format: functional;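 also: activated factor XIIa alpha cleaving a fluorogenic AMC peptide substrate; inhibitor potency from loss of enzyme activity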
# T2 sequence (P00748 whole entry): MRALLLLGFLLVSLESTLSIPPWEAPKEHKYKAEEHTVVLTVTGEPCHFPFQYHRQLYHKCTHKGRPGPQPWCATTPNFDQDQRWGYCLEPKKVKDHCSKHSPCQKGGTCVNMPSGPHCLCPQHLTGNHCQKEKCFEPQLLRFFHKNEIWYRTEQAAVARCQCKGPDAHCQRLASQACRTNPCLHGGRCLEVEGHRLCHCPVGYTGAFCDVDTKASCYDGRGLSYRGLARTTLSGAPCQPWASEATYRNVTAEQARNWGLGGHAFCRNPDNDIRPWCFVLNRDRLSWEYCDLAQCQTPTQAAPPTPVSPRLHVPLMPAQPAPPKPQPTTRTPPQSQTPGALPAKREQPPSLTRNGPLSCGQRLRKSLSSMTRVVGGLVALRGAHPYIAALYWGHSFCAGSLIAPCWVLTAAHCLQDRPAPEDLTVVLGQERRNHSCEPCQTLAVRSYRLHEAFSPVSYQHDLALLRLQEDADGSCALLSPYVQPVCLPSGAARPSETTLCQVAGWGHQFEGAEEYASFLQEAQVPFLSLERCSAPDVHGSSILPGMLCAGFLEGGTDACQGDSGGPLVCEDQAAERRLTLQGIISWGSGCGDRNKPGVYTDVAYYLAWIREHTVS
# cells = format: functional
# [5] = Luminescence Cell-Based Dose Response HTS to Identify Inhibitors of 5'UTR Stem-Loop Driven Prion Protein mRNA Translation in H4 Neuroglioblastoma Cells. [Related pubchem assays: 1827 (Project Summary), 1813 (Primary HTS)]; format: functional
# [6] = alpha-synuclein stem-loop luciferase translation blockers – H4 neuroglioma cells, luminescence, confirmation (AID 1988); format: functional, cell-based
# [7] = HepG2 cell cytotoxicity, dose response, cytotoxicity control for non-replicating M. tuberculosis project (AID 489018); format: functional; details: Mycobacterium tuberculosis
# [8] = THP-1 cell cytotoxicity, dose response, cytotoxicity control for non-replicating M. tuberculosis project (AID 489025); format: functional
# [9] = luciferase reporter signal suppression in cells – H4 neuroglioma cells, luminescence, dose response (AID 1990); format: functional, cell-based
# [10] = A Cell Based Secondary Assay To Explore Cytotoxicity of Compounds that Sensitize Mycobacterium Tuberculosis to Beta-Lactam Antibiotics.; format: functional
# [11] = viability of PTEN-deleted HCT116 cells – cell-based, HCT116 PTEN knockout, dose response (AID 1047); format: functional;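 also: HCT116 colon tumor cells with PTEN knocked out; cells exposed to compound for 60 hours before readout; potency for loss of cell viability measured by luminescence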
# [12] = viability of HCT116 lacking mutant beta-catenin – cell-based, human colon tumor, dose response (AID 1045); format: functional;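 also: HCT116 colon tumor cells with beta catenin knocked out; cells exposed to compound for 60 hours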
# HEK293 [13] = test: cells; format: functional, cell-based; details: Homo sapiens
# HEK293 [14] = test: NOD2 signaling inhibitors in MDP-stimulated cells, cell-based, uHTS, luminescence (AID 2001); format: functional; details: Homo sapiens
# HEK293 [15] = test: inhibition of NOD1-driven NF-kB reporter – cell-based, luminescence, uHTS, primary screen (AID 1578); format: functional; details: Homo sapiens
# HEK293 [16] = test: cells; format: functional, cell-based; details: Homo sapiens; remark: listed apart in the source
# Prothrombin = Prothrombin (Homo sapiens, UniProt P00734); test: Thrombin 1536 HTS Dose Response Confirmation. [Related pubchem assays: 1046 (Thrombin 1536 HTS; hits were confirmed in this assay)]; format: functional
# Voltage-dependent T-type calcium channel subunit alpha-1H, sequence (O95180 whole entry): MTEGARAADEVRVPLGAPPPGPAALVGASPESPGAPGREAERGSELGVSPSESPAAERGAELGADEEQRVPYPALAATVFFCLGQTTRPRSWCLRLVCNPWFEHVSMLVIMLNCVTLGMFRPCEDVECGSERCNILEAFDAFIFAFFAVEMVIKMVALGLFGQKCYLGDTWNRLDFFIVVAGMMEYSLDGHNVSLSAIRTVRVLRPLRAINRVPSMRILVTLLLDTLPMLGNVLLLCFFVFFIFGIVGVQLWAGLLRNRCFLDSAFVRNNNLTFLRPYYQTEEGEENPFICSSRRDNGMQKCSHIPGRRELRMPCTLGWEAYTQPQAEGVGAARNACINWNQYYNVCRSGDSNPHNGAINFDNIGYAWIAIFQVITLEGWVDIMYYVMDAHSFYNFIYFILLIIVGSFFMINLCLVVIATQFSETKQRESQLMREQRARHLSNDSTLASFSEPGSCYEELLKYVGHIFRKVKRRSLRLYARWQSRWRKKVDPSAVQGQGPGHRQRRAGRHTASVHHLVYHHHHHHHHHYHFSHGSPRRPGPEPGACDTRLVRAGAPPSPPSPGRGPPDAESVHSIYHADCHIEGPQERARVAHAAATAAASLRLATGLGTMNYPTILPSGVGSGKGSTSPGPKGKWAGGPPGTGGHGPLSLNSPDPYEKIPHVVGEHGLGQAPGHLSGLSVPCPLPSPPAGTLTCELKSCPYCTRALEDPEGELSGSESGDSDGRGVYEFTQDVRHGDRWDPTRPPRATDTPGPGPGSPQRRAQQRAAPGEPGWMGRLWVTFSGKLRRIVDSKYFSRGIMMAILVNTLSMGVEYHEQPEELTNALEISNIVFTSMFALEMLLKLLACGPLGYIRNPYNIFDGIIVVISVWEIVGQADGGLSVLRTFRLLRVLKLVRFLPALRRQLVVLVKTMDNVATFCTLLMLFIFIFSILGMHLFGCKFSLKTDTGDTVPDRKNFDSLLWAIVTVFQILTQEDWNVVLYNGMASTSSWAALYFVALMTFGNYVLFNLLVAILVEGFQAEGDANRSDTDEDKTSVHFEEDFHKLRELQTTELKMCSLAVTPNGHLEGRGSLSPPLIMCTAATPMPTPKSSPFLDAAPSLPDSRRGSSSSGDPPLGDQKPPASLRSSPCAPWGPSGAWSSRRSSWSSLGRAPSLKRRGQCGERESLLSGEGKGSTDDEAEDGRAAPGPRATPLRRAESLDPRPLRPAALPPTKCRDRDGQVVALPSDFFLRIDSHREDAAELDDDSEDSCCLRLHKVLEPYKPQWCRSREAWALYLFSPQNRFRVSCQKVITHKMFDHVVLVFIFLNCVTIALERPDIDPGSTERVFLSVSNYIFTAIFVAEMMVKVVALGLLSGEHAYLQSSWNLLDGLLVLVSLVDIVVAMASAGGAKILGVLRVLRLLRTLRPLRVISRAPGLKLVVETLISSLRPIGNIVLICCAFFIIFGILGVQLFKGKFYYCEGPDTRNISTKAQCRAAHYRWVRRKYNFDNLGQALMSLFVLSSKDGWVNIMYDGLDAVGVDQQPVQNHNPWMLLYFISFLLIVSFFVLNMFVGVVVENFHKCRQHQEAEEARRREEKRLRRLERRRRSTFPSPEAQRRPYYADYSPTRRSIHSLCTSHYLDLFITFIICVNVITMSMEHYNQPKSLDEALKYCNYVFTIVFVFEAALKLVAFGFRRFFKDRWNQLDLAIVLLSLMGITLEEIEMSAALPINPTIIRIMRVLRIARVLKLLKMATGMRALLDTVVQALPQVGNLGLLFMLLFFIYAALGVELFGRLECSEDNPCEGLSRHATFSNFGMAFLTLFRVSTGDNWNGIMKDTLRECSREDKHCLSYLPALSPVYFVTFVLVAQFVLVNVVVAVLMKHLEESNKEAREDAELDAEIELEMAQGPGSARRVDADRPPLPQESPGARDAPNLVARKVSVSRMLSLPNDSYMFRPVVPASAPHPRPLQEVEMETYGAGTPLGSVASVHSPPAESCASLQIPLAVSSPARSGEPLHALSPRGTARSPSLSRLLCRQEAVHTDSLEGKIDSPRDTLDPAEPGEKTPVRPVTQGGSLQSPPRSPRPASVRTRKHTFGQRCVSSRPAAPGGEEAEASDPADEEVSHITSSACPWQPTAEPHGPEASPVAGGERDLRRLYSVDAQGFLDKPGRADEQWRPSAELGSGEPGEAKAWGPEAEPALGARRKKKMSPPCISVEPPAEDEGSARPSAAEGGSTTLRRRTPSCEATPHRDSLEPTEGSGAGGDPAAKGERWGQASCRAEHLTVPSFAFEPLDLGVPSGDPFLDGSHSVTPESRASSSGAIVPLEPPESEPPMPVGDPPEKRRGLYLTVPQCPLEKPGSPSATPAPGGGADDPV
# Eukaryotic translation initiation factor 4E, sequence (P63073 whole entry): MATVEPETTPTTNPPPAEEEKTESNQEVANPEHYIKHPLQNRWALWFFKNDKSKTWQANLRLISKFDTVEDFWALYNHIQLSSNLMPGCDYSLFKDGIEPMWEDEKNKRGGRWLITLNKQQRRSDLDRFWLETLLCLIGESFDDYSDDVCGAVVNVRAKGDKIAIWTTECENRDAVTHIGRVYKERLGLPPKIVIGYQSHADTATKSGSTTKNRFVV
structure (smiles),measurement,setting,value
O=C(NCCc1csc(-c2ccc(C(F)(F)F)cc2)n1)c1cccs1,EC50,[1],4.14 µM (active)
Nc1ccc(S(=O)(=O)N2CCCc3ccccc32)cc1,IC50,[2],> 64 µM (inactive)
Cc1cccc(NC(=S)NC2CCCC2)n1,IC50,[3],> 50 µM (inactive)
same,IC50,[4],7.9 µM (active)
CC1(C)C2CC=C(/C=N/n3cnnc3)C1C2 (configuration not stated),IC50,Coagulation factor XII,> 50 µM (inactive)
CCCOc1ccc(CCC(=O)N/N=C/c2ccc([N+](=O)[O-])o2)cc1,IC50,cells,5.03 µM (active)
same,EC50,[5],> 120 µM (not active)
same,EC50,[6],> 120 µM (not active)
same,CC50,[7],19.3 µM (active)
same,CC50,[8],13.1 µM (active)
same,EC50,[9],> 120 µM (not active)
CCOC(=O)c1c(NC(=S)NC(=O)c2ccc(Cn3cc(Cl)cn3)o2)sc2c1CCC(C)C2 (configuration not stated),CC50,[10],12.2 µM (active)
same,EC50,[11],5.87 µM (active)
same,EC50,[12],6.18 µM (active)
O=C(NC1CCCCC1)N(Cc1ccccc1)Cc1ccco1,EC50,[1],3.68 µM (active)
COC(=O)c1ccc2c(O)nc(CCl)nc2c1,IC50,HEK293 [13],> 20 µM (inactive)
same,IC50,HEK293 [14],> 20 µM (inactive)
same,EC50,HEK293 [15],> 20 µM (inactive)
same,IC50,HEK293 [16],> 20 µM (inactive)
O=C1CC(SCCc2nc3ccccc3[nH]2)C(=O)N1c1ccc(Cl)cc1 (configuration not stated),EC50,[1],613 µM (active)
COc1ccc(-c2nn(-c3ccccc3)cc2C(=O)Nc2nccs2)cc1OC,CC50,[10],32 µM (active)
Cc1ccc(C(=O)n2cnnc2N)cc1C,IC50,Prothrombin,1.87 µM (active)
